In patent publication US7262212B2, “2,3-dihydro-6-nitroimidazo[2,1-b]oxazoles” (Otsuka Pharmaceutical Co., Ltd., priority 2002, dated 2007):

| SMILES | melting point |
| --- | --- |
| C[C@]1(COC(=O)N2CCCc3cc(Cl)ccc32)Cn2cc([N+](=O)[O-])nc2O1 | 172 to 174 °C |
| CC1(COc2ccc(OC(F)(F)F)cc2)Cn2cc([N+](=O)[O-])nc2O1 (stereo not shown) | 126.8 to 127.9 °C |
| C[C@]1(CN2CCN(C3CCN(Cc4ccc(OC(F)(F)F)cc4)CC3)CC2)Cn2cc([N+](=O)[O-])nc2O1 | 140 to 141 °C |
| CC1(COc2ccc(N3CCC(Oc4ccc(Cl)cc4)CC3)cc2)Cn2cc([N+](=O)[O-])nc2O1 (stereo not shown) | 151 to 152.3 °C |
| C[C@]1(COc2cccc(N3CCN(C(=O)OCc4ccc(OC(F)(F)F)cc4)CC3)c2)Cn2cc([N+](=O)[O-])nc2O1 | 136.5 to 138 °C |
| C[C@]1(COc2ccc(C3=CCN(Cc4ccc(OC(F)(F)F)cc4)CC3)cc2)Cn2cc([N+](=O)[O-])nc2O1 | 168 to 174 °C |
| CN(CCN1CCN(C(=O)OC(C)(C)C)CC1)C[C@@]1(C)Cn2cc([N+](=O)[O-])nc2O1 | 149.5 to 151.8 °C |
| CN(Cc1ccc(Cl)cc1)C[C@@]1(C)Cn2cc([N+](=O)[O-])nc2O1 | 129 to 129.5 °C |
| CC1(CNC(=O)OCc2ccccc2)Cn2cc([N+](=O)[O-])nc2O1 (stereo not shown) | 171.3 to 172.2 °C |
| O=C(NCC1Cn2cc([N+](=O)[O-])nc2O1)OCc1ccc(F)cc1 (stereo not shown) | 164.6 to 165.1 °C |
| CNC(C1CCN(C(=O)OCc2ccc(OC(F)(F)F)cc2)CC1)[C@]1(C)Cn2cc([N+](=O)[O-])nc2O1 (stereo partly shown) | 84.2 to 86.8 °C |
| CN(C(=O)OC(C)(C)C)C1CCN(CC2(C)Cn3cc([N+](=O)[O-])nc3O2)CC1 (stereo not shown) | 198.8 to 201.1 °C |
| CN(C(=O)OCc1ccc(Cl)cc1)C1CCN(CC2(C)Cn3cc([N+](=O)[O-])nc3O2)CC1 (stereo not shown) | 147.2 to 149.2 °C |
| C[C@]1(CN2CCC(Cc3ccc(OC(F)(F)F)cc3)CC2)Cn2cc([N+](=O)[O-])nc2O1 | 111 to 112.5 °C |
| C[C@]1(CN2CCC(OCC=Cc3ccccc3)CC2)Cn2cc([N+](=O)[O-])nc2O1 | 91.3 to 92.7 °C |
| C[C@]1(CN2CCC(OCCc3ccc(C(F)(F)F)cc3)CC2)Cn2cc([N+](=O)[O-])nc2O1 | 84.6 to 86.8 °C |
| C[C@]1(CN2CCC(NC(=O)Nc3ccc(C(F)(F)F)cc3)CC2)Cn2cc([N+](=O)[O-])nc2O1 | 136.8 to 139.9 °C |
| CC1(CN2CCN(c3ccc(-c4ccccc4)cc3)CC2)Cn2cc([N+](=O)[O-])nc2O1 (stereo not shown) | 223 to 227.8 °C |
| CC1(CN2CCN(c3ccc(Cl)cc3)CC2)Cn2cc([N+](=O)[O-])nc2O1 (stereo not shown) | 196.6 to 197.3 °C |
| CC1(CO)Cn2cc([N+](=O)[O-])nc2O1 (stereo not shown) | 166 to 168 °C |
| CC1(CCN2CCN(C(=O)OCc3ccc(C(F)(F)F)cc3)CC2)Cn2cc([N+](=O)[O-])nc2O1 (stereo not shown) | 139 to 140 °C |

| SMILES | melting point |
| --- | --- |
| CC1(CN2CCN(C(=O)NC3CCCCC3)CC2)Cn2cc([N+](=O)[O-])nc2O1 (stereo not shown) | 216.5 to 218.5 °C |
| CC1(CN2CCN(C(=S)Nc3ccccc3)CC2)Cn2cc([N+](=O)[O-])nc2O1 (stereo not shown) | 164 to 165 °C (dec.) |
| O=[N+]([O-])c1cn2c(n1)O[C@@H](CN1CCN(c3ccc(F)cc3)CC1)C2 | 178.5 to 179.5 °C |
| C[C@]1(CN2CCN(C(=O)OCC=Cc3ccc(C(F)(F)F)cc3)CC2)Cn2cc([N+](=O)[O-])nc2O1 | 132 to 133 °C |
| C[C@]1(CN2CCN(Cc3ccc(OC(F)(F)F)cc3)CC2)Cn2cc([N+](=O)[O-])nc2O1 | 137 to 138 °C |
| CC1(CN2CCN(C(=O)COc3ccccc3)CC2)Cn2cc([N+](=O)[O-])nc2O1 (stereo not shown) | 158 to 160.6 °C |
| CC1(CN2CCN(C(=O)Cc3ccc(Cl)cc3)CC2)Cn2cc([N+](=O)[O-])nc2O1 (stereo not shown) | 184 to 187 °C |
| Cc1ccc(CC(=O)N2CCN(CC3(C)Cn4cc([N+](=O)[O-])nc4O3)CC2)cc1 (stereo not shown) | 213 to 214 °C |
| CN(C)c1ccc(C(=O)N2CCN(CC3(C)Cn4cc([N+](=O)[O-])nc4O3)CC2)cc1 (stereo not shown) | 204 to 207 °C |
| COc1ccc(NC(=O)N2CCN(C[C@@]3(C)Cn4cc([N+](=O)[O-])nc4O3)CC2)cc1 | 185.5 to 187.5 °C |
| CC1(CCSc2nc3ccccc3o2)Cn2cc([N+](=O)[O-])nc2O1 (stereo not shown) | 174 to 175 °C |
| C[C@]1(CN2CCN(N=Cc3cc4cc(Cl)ccc4o3)CC2)Cn2cc([N+](=O)[O-])nc2O1 | 213.8 to 215.7 °C |
| CCCCCC(C=NN1CCN(CC2(C)Cn3cc([N+](=O)[O-])nc3O2)CC1)=Cc1ccccc1 (stereo not shown) | 166.6 to 169.6 °C |
| CC1(Cn2nc(C=Cc3ccc(Cl)cc3)oc2=O)Cn2cc([N+](=O)[O-])nc2O1 (stereo not shown) | 249 to 252 °C |
| CC1(Cn2nc(COc3ccc(Cl)cc3)oc2=O)Cn2cc([N+](=O)[O-])nc2O1 (stereo not shown) | 64 to 66 °C |
| CN(C)c1ccc2c(c1)n(CC1(C)Cn3cc([N+](=O)[O-])nc3O1)c(=O)n2C (stereo not shown) | 264.6 to 268.3 °C (dec.) |
| CC1(CN2CCN(C(C)(C)C)C(=O)C2)Cn2cc([N+](=O)[O-])nc2O1 (stereo not shown) | 193 to 194 °C |
| CC1(Cn2ccnc2)Cn2cc([N+](=O)[O-])nc2O1 (stereo not shown) | 245.5 to 247.8 °C |
| CC(C)(C)OC(=O)N1CCC2(CC1)Cn1cc([N+](=O)[O-])nc1O2 | 230 to 232 °C |
| CN(Cc1ccc(OC(F)(F)F)cc1)C(=O)OC[C@@]1(C)Cn2cc([N+](=O)[O-])nc2O1 | 123 to 124 °C |
| CN(C(=O)OC[C@@]1(C)Cn2cc([N+](=O)[O-])nc2O1)c1ccc(OC(F)(F)F)cc1 | 144 to 145 °C |

Other lines, results leading:

| melting point | SMILES |
| --- | --- |
| 211 to 212 °C | CC(C)(C)OC(=O)N1CCN(C(=O)OC[C@@]2(C)Cn3cc([N+](=O)[O-])nc3O2)CC1 |
| 249 to 252 °C (dec.) | O=C(Nc1ccc(Cl)cc1)N1CCC2(CC1)Cn1cc([N+](=O)[O-])nc1O2 |
| 226 to 228 °C | C[C@]1(CN2CCC(N3CCN(c4ccc(Cl)cc4)CC3)CC2)Cn2cc([N+](=O)[O-])nc2O1 |
| 142 to 143 °C | C[C@]1(CN2CCC(N3CCN(Cc4ccc(OC(F)(F)F)cc4)CC3)CC2)Cn2cc([N+](=O)[O-])nc2O1 |
| 207 to 209.5 °C | CC(C)(C)OC(=O)N1CCN(c2ccc(OC[C@@]3(C)Cn4cc([N+](=O)[O-])nc4O3)cc2Cl)CC1 |
| 131 to 132 °C | C[C@]1(CN2CCC(N3CCC(Oc4ccc(OC(F)(F)F)cc4)CC3)CC2)Cn2cc([N+](=O)[O-])nc2O1 |
| 105 to 106 °C | C[C@]1(CN2CCN(C3CCN(C(=O)OCc4ccc(OC(F)(F)F)cc4)CC3)CC2)Cn2cc([N+](=O)[O-])nc2O1 |
| 186 to 188 °C | C[C@]1(COc2ccc(C3CCN(Cc4ccc(OC(F)(F)F)cc4)CC3)cc2)Cn2cc([N+](=O)[O-])nc2O1 |
| 182.5 to 183.4 °C | CCOC(=O)NCC1(C)Cn2cc([N+](=O)[O-])nc2O1 (stereo not shown) |
| 131.5 to 133.6 °C | CNC(C1CCN(c2ccc(C(F)(F)F)cc2)CC1)[C@]1(C)Cn2cc([N+](=O)[O-])nc2O1 (stereo partly shown) |
| 116.2 to 116.6 °C | CNC(C1CCN(C(=O)OCc2ccc(Cl)cc2)CC1)[C@]1(C)Cn2cc([N+](=O)[O-])nc2O1 (stereo partly shown) |
| 113 to 114 °C | CC1(CN2CCC(Oc3ccc(C(F)(F)F)cc3)CC2)Cn2cc([N+](=O)[O-])nc2O1 (stereo not shown) |
| 143.5 to 145 °C | CC1(CN2CCC(Cc3ccc(OC(F)(F)F)cc3)CC2)Cn2cc([N+](=O)[O-])nc2O1 (stereo not shown) |
| 163.4 to 164.9 °C | C[C@]1(CN2CCC(N3CCCCC3)CC2)Cn2cc([N+](=O)[O-])nc2O1 |
| 183 to 185 °C (dec.) | O=[N+]([O-])c1cn2c(n1)OC(CN1CCN(Cc3ccc(-c4ccccc4)cc3)CC1)C2 (stereo not shown) |
| 154 to 156 °C | CC1(CCCN2CCN(Cc3ccc(C(F)(F)F)cc3)CC2)Cn2cc([N+](=O)[O-])nc2O1 (stereo not shown) |
| 181 to 182 °C | CC1(CCN2CCN(Cc3ccc(-c4ccccc4)cc3)CC2)Cn2cc([N+](=O)[O-])nc2O1 (stereo not shown) |
| 101 to 102 °C | CC(=O)c1ccc(COC(=O)N2CCN(CC3(C)Cn4cc([N+](=O)[O-])nc4O3)CC2)cc1 (stereo not shown) |
| 172 to 174.4 °C | CC1(CCCN2CCN(c3nc4ccccc4o3)CC2)Cn2cc([N+](=O)[O-])nc2O1 (stereo not shown) |

| melting point | SMILES |
| --- | --- |
| 207 to 208 °C | O=[N+]([O-])c1cn2c(n1)O[C@@H](CN1CCN(Cc3ccc(-c4ccccc4)cc3)CC1)C2 |
| 141 to 143 °C | O=[N+]([O-])c1cn2c(n1)O[C@H](CN1CCN(Cc3ccc(C(F)(F)F)cc3)CC1)C2 |
| 150 to 151 °C | C[C@]1(CN2CCN(C(=O)OCC=Cc3cccc(Cl)c3)CC2)Cn2cc([N+](=O)[O-])nc2O1.O=C(O)/C=C\C(=O)O |
| 167 to 169 °C | C[C@@]1(CN2CCN(C(=O)OCc3ccc(F)cc3)CC2)Cn2cc([N+](=O)[O-])nc2O1 |
| 222 to 224 °C | CC1(CN2CCN(C(=O)Nc3ccc(Cl)c(C(F)(F)F)c3)CC2)Cn2cc([N+](=O)[O-])nc2O1 (stereo not shown) |
| 212 to 214 °C (dec.) | CC1(CN2CCN(C(=O)Nc3ccc(Cl)c(Cl)c3)CC2)Cn2cc([N+](=O)[O-])nc2O1 (stereo not shown) |
| 150 to 152.5 °C | C[C@]1(CN2CCN(C(=O)Nc3ccc(C(F)(F)F)cc3)CC2)Cn2cc([N+](=O)[O-])nc2O1 |
| 261.9 to 265.4 °C (dec.) | Cn1c(=O)n(CC2(C)Cn3cc([N+](=O)[O-])nc3O2)c2cc(Cl)ccc21 (stereo not shown) |
| 180.2 to 180.9 °C | CC1(CN2CCN(Cc3ccccc3)C2=O)Cn2cc([N+](=O)[O-])nc2O1 (stereo not shown) |
| 182.5 to 183.3 °C | CC1(CN2CCN(Cc3ccc(F)cc3)C2=O)Cn2cc([N+](=O)[O-])nc2O1 (stereo not shown) |
| 124 to 126 °C | CC1(CN2CCC(=O)CC2)Cn2cc([N+](=O)[O-])nc2O1 (stereo not shown) |
| 166.5 to 168.2 °C | C[C@]1(CN2CCC3(CC2)OCCO3)Cn2cc([N+](=O)[O-])nc2O1 |
| 211 to 213 °C | CC(C)(C)OC(=O)N1CCN(CC(=O)N2CCC3(CC2)Cn2cc([N+](=O)[O-])nc2O3)CC1 |
| 232 to 234 °C | CC(=O)N1CCC2(CC1)Cn1cc([N+](=O)[O-])nc1O2 |
| 223 to 225 °C | O=C(NCc1ccc(OC(F)(F)F)cc1)N1CCC2(CC1)Cn1cc([N+](=O)[O-])nc1O2 |
| 152 to 154 °C | CC1(COC(=O)N2CCCCC2)Cn2cc([N+](=O)[O-])nc2O1 (stereo not shown) |
| 138 to 140 °C | CC1(COC(=O)N2CCN(c3ccc(OC(F)(F)F)cc3)CC2)Cn2cc([N+](=O)[O-])nc2O1 (stereo not shown) |
| 123.5 to 124 °C | C[C@]1(CN2CCN(C(=O)OCC(F)(F)F)CC2)Cn2cc([N+](=O)[O-])nc2O1 |
